Experiments:
[1] = target: T1, androgen receptor (rat ventral prostate cytosol) (Rattus norvegicus, UniProt P15207); test: Androgen Receptor Binding Using Rat Ventral Prostate Cytosol; settings: for inhibition at 1 µM: read-out: % Inhibition, Androgen Receptor Binding (Rat Cytosol)
T1 construct: from tissue; host or cells: ventral prostate cytosol of castrated male Sprague Dawley or Wistar rats
T1 sequence (P15207 1-902): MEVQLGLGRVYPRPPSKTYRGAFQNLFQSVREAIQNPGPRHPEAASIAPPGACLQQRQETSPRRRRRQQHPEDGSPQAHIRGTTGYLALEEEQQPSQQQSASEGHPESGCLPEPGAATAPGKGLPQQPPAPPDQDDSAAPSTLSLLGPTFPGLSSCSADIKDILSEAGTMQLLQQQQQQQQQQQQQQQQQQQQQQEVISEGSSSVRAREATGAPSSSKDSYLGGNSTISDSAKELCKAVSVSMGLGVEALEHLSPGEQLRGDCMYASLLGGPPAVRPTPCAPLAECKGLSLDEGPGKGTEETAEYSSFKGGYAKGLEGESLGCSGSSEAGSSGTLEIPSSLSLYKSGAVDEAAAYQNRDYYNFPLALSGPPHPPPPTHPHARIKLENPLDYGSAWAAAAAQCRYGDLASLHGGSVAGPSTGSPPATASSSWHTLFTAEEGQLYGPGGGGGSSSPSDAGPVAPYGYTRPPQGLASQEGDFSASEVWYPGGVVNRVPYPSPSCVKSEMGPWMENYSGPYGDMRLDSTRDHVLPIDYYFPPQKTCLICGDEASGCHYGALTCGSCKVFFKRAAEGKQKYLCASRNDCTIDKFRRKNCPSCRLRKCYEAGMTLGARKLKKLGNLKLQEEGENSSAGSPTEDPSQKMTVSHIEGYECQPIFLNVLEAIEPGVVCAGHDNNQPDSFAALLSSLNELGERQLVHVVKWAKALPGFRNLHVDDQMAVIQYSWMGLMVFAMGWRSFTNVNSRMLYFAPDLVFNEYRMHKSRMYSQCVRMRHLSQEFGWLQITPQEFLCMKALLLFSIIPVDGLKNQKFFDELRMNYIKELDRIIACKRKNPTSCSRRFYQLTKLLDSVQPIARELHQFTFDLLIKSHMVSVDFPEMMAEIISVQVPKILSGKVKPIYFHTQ
Experimental: (§1) The assay was run on a 96 well plate with each well filled with a total reaction volume 150 μL, of a solution containing 5 pmol androgen receptor LBD (Panvera) or 30 μL of freshly prepared rat cytosol, 0.5 nM [^3H] […] (TED buffer contains 10 mM Tris.HCl pH 7.4, 1 mM sodium molybdate, 1.5 mM EDTA, 1 mM DTT and 10% (v/v) glycerol.)
(§2) On day one, the solution containing receptor, tracer and TED buffer was distributed into a 96 well plate. Diluted test compound or control vehicle was then added to individual wells and the plate incubated at 4° C. overnight.
(§3) On day two, to each well was then added 20 μL human γ-globulin (ICN 823102), prepared at 25 mg/ml in TE pH 8.0, and 55 μL 40% polyethylene glycol 8000 (J T Baker U222-08), prepared in TE pH 8.0. The plate was incubated at 4° C. for 60 minutes. During incubation, the harvester was rinsed with 10% PEG 8000, prepared in TE pH 8.0, and a GF/C Unifilter-96 was pre-wet with 10% PEG. The binding reaction was filtered, the retentate was washed three times with 10% PEG and dried under vacuum for a couple of minutes, then dried at 50° C. for 5 min and the plate was bottom sealed. Next, 25 μL of Microscint-20 (Packard) was added to the filter wells and the plate was top sealed. The plate wells were then counted on a TopCount (Packard).
Rat Prostate Cytosol Preparation:
Male Sprague Dawley or Wistar rats (Charles River, 200-300 g) were used for each preparation. The day before preparing the cytosol, the rats were castrated using standard surgical procedures.
The rats were euthanized by carbon dioxide asphyxiation. The rat prostates were quickly removed and placed on ice in pre-chilled, pre-weighed 50 mL plastic tubes. No more than five prostates were placed into one tube. The tubes were then weighed and the prostate tissue wet weights calculated.
To the chilled prostate tissue was then added […] of chilled homogenization buffer. The homogenization buffer was freshly prepared by mixing 10 mM Tris.HCl, pH 7.4, 1 mM sodium molybdate, 1.5 mM EDTA, 1 mM dithiothreitol, 10% (v/v) glycerol and 1% protease inhibitor cocktail (Sigma P 8340).
The prostate tissue was homogenized in a cold room using a pre-chilled Polytron PT3000 homogenizer (Brinkmann). Homogenization was performed at a speed setting of 20, three times for 10 sec bursts. The tubes containing the prostate tissue was kept on ice while homogenizing. The homogenate was allowed to rest on ice for 20 sec between bursts.
The homogenate was then placed into pre-chilled 3 mL polycarbonate ultracentrifuge tubes and centrifuged in the TLA-100 rotor of a TL-100 ultracentrifuge for 12 min at 100,000 rpm at 4° C. The resulting supernatant was stored in 1 mL aliquots at −80° C. until needed.
Binding to the androgen receptor was determined according to the protocol described in Example 86 using the above prepared rat cytosol.
% Inhibition was determined by testing dilutions of the test compound (usually duplicates of 10 μM) in the binding assay. Counts per well were measured and percents of inhibition determined. […] Counts per well were measured and IC50s determined by linear regression.

[2] = target: T2, androgen receptor LBD (Panvera) (Rattus norvegicus, UniProt P15207); test: Androgen Receptor Filtration Binding Assay (PANVERA); settings: [3H] R1881 tracer 0.5 nM; read-out: IC50 (nM), Androgen Receptor Binding (Panvera)
T2 construct: 5 pmol androgen receptor LBD (Panvera); purchased Panvera
T2 sequence (P15207 651-882 limits assumed): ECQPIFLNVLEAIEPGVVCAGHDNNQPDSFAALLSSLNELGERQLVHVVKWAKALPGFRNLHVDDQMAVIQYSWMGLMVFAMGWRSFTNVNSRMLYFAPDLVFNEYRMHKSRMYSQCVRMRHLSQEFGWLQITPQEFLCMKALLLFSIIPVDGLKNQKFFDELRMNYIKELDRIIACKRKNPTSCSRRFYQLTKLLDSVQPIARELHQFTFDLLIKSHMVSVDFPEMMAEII
Experimental: as §1, §2, §3
Counts per well were measured and IC50s determined by linear regression.

[3] = tested on: testosterone-enhanced ventral prostate and seminal vesicle weights; test: Ventral Prostate and Seminal Vesicle Weight in vivo Assay; design: species or system rat; settings: immature castrated male Sprague Dawley rats, once daily for five days, usually orally 40 mg/kg, with testosterone propionate 2 mg/kg s.c. Also: key: 'active' if the non weight adjusted prostate weight was ≦40 mg or the % Inhibition prostate weight, body weight adjusted was ≧40% @ 2 mg/day dosage; ID50's, if determined, of ≦15 mg/day also indicated an 'active' compound; listed herein as 'inactive' as they did not meet the specified criteria defined above.
In short: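 Wet weights of ventral prostate and seminal vesicles were taken on day six. Castrated immature male Sprague Dawley rats had received five daily doses of testosterone propionate (2 mg/kg s.c.) together with test compound, typically 40 mg/kg orally. Activity was scored from absolute prostate weight or body-weight-adjusted % inhibition.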

[4] = target: T3, androgen receptor (AdEasy+rAR, COS-7 cells) (Rattus norvegicus, UniProt P15207); test: COS-7 Whole-Cell Androgen Receptor Binding Assay, Adenovirus Transduction; settings: for inhibition at 3 µM: concentration of 3000 nM; for IC50: read-out: IC50 (nM), COS Binding
T3 construct: expressed in transfected cells; host or cells: COS-7 cells transduced with adenovirus AdEasy+rAR
T3 sequence (P15207 1-902): T1 sequence (P15207 1-902)
Experimental: COS-7 cells were plated in 96-well plates at 20,000 cells per well, in a solution of DMEM/F12 (GIBCO) containing 10% (v/v) charcoal-treated fetal bovine serum (Hyclone) and lacking phenol red. The cells were then incubated overnight at 37° C. in 5% (v/v) humidified CO2.
Test compound solutions were prepared by diluting the test compound in 100% (v/v) DMSO, if necessary.
Next, 1 mL of DMEM/F12 lacking phenol red was pipetted into each of the wells of a 2-mL 96-well assay block. […] The wells were carefully mixed by pipette.
In a 15 mL or 50 mL sterile centrifuge tube, a dilution in DMEM/F12 of the adenovirus AdEasy+rAR at a moi of 1:50 per well was prepared.
The medium was removed from the 96-well plates by inversion and the plates dried very briefly, inverted, on a sterile towel. As soon as possible after medium removal, 40 μL of the diluted test compound was added to each well, in duplicate. […] The plates were then incubated for 48 hours at 37° C. in 5% (v/v) humidified CO2.
The medium was removed from the above incubated plates by inversion and dried. Each well was then washed with 0.35 mL of 1× PBS. The PBS was then removed from the plates by inversion and the plates dried.
To each well was then added 50 μL of 0.5% (v/v) Triton X-100 (Sigma) in 1× PBS and the plates placed on a rotary shaker for 5 min. The contents of each well were then transferred to an OptiPlate-96 (Packard) scintillation plate. To each well was then added 0.2 mL of Microscint-20 (Packard) and the wells counted on a TopCount (Packard).
Percent inhibition was determined by testing dilutions of the test compound (usually duplicates of 10 μM) in the binding assay. Counts per well were measured and percents of inhibition determined. […] Counts per well were measured and IC50s determined by linear regression.

[5] = target: T4, androgen receptor (AdEasy+rAR, L929 cells) (Rattus norvegicus, UniProt P15207); test: L929 Androgen Receptor Functional Assay, Adenovirus Transduction; type: cell-based; settings: for inhibition at 3 µM: L929, antagonist testing with R1881, 3000 nM; for IC50: antagonist testing with R1881
T4 construct: expressed in transfected cells; host or cells: L929 cells transduced with adenovirus AdEasy+rAR
T4 sequence (P15207 1-902): T1 sequence (P15207 1-902)
In short: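 Luminescent reporter readout after 48 h at 37 °C: rat AR delivered by adenovirus (AdEasy+rAR, moi 1:500) into L929 cells grown without phenol red in charcoal-treated serum. Antagonist wells also received R1881 (2.5× dilution at 2.5 nM).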

Row | Compound | inhibition at 1 µM ([1]; Concentration 1000 nM) [%] | IC50 [2] [nM] | active / inactive: inhibition of testosterone-enhanced prostate weight [3] | IC50 [4] [nM] | other results
1 | CC(O)(CSC1CCCCC1)c1cc2nc(C(F)(F)F)ccc2[nH]1 (racemic) [Compound 1] | 22 | 14000 |  |  | 
2 | CC(O)(CSc1ccccc1)c1cc2nc(C(F)(F)F)ccc2[nH]1 (racemic) [Compound 2] | 2.5 | 53000 |  |  | 
3 | CC(O)(CSc1ccc(Cl)cc1)c1cc2nc(C(F)(F)F)ccc2[nH]1 (racemic) [Compound 3] | 6.6 | 26000 |  |  | 
4 | CC(O)(CSc1ccc(F)cc1)c1cc2nc(C(F)(F)F)ccc2[nH]1 (racemic) [Compound 5] | 5.5 | 39000 |  |  | 
5 | CC(O)(CSc1ccc(Cl)cc1)c1cc2cc([N+](=O)[O-])c(C(F)(F)F)cc2o1 (racemic) [Compound 8] | -2 | 2650 |  |  | 
6 | CC(O)(COC(=O)c1ccc(Cl)cc1)c1cc2cc(Cl)c(C(F)(F)F)cc2[nH]1 (racemic) [Compound 62] |  | 325 |  |  | % Inhibition, Androgen Receptor Binding (Rat Cytosol) ([1]; Concentration 1000 nM): 69%
7 | CC(CO)(Sc1ccc(Cl)cc1)c1cc2cc(Cl)c(C(F)(F)F)cc2[nH]1 (racemic) [Compound 253] | 33.5 | 335 |  |  | 
8 | CC(O)(SC1CCCCC1)c1cc2cc([N+](=O)[O-])c(C(F)(F)F)cc2[nH]1 (racemic) [Compound 256] |  | 2650 |  |  | 
9 | CC(O)(SC1CCCCC1)c1cc2cc(C#N)c(C(F)(F)F)cc2[nH]1 (racemic) [Compound 257] |  | 5150 |  |  | 
10 | CC(O)(Sc1ccc(Cl)cc1)c1cc2cc([N+](=O)[O-])c(C(F)(F)F)cc2[nH]1 (racemic) [Compound 259] |  | 915 |  |  | 
11 | CC(O)(CSc1ccc(Cl)cc1)c1cc2ccccc2[nH]1 (stereo not shown) [Compound 89] |  | > 9600 |  |  | 
12 | CC(O)(CSc1ccc([N+](=O)[O-])cc1)c1cc2cc([N+](=O)[O-])c(C(F)(F)F)cc2[nH]1 (stereo not shown) [Compound 103] |  | 1650 |  |  | 
13 | CC(O)(C[S+]([O-])c1ccc(F)cc1)c1cc2cc(Cl)c(C(F)(F)F)cc2[nH]1 (stereo not shown) [Compound 113] |  | 5100 | inactive |  | 
14 | CCSCC(C)(O)c1cc2cc(Cl)c(C(F)(F)F)cc2[nH]1 (stereo not shown) [Compound 152] |  |  | inactive | 108 | inhibition at 3 µM ([1]; Concentration 3000 nM): 97%; inhibition at 3 µM [4]: 39%
15 | CC(O)(CSCC(F)(F)F)c1[nH]c2cc(C(F)(F)F)c([N+](=O)[O-])cc2c1I (stereo not shown) [Compound 213] |  |  | active | > 600 | inhibition at 3 µM [5]: 92%; EC50 ([5]; agonist testing): > 8000 nM; % Activity, L929 androgen receptor functional assay ([5]; agonist testing, @ 8000 nM): −1 @ 8000 nM %; IC50 [5]: 372 nM; inhibition at 3 µM [4]: 71%
16 | CCSCC(C)(O)c1[nH]c2cc(C(F)(F)F)c(C#N)cc2c1C (stereo not shown) [Compound 219] |  |  | inactive | 6.2 | inhibition at 3 µM [5]: 103%; % Activity, L929 androgen receptor functional assay ([5]; agonist testing, 3000 nM): −3%
17 | CCSCC(C)(O)c1cc2cc(Br)c(C(F)(F)F)cc2[nH]1 (stereo not shown) [Compound 220] |  |  | inactive | 34 | inhibition at 3 µM [5]: 103%; % Activity, L929 androgen receptor functional assay ([5]; agonist testing, 3000 nM): −3%
18 | CCSCC(C)(OC)c1cc2cc(C#N)c(C(F)(F)F)cc2n1C (stereo not shown) [Compound 235] |  |  | inactive | 520 | inhibition at 3 µM [5]: 95%; % Activity, L929 androgen receptor functional assay ([5]; agonist testing, 3000 nM): 3%; IC50 [5]: 1840 nM; inhibition at 3 µM [4]: 78%
19 | CCSCC(C)(O)c1cc2cc(C#N)c(C(F)(F)F)cc2n1C (stereo not shown) [Compound 236] |  |  | active | 105 | inhibition at 3 µM [5]: 103%; % Activity, L929 androgen receptor functional assay ([5]; agonist testing, 3000 nM): 2%; IC50 [5]: 821 nM; inhibition at 3 µM [4]: 83%
